Results: patent US9675539B2, “Cosmetic and pharmaceutical compositions and methods using 2-decarboxy-2-phosphinico derivatives” (Duke University, priority 2000, dated 2017)

Molecular target: hFP receptor (Homo sapiens (Human), UniProt P43088)
Assay: Radioligand Binding Assay
Conditions: competition with 5 nM (3H) PGF2α on hFP membranes from transfected COS-7 cells; read-out: IC50 the PGF
Procedure: IC50 of a prostaglandin can be determined relative to PGF2α using the Radioligand Binding Assay.
In this assay, COS-7 cells are transiently transfected with the hFP recombinant plasmid using LipofectAMINE Reagent. Forty-eight hours later, the transfected cells are washed with Hank's Balanced Salt Solution (HBSS, without CaCl2, MgCl2, MgSO4, or phenol red). The cells are detached with versene, and HBSS is added. The mixture is centrifuged at 200 g for 10 minutes, at 4° C. to pellet the cells. The pellet is resuspended in Phosphate-Buffered Saline-EDTA buffer (PBS; 1 mM EDTA; pH 7.4; 4° C.). […] The mixture is centrifuged at 1000 g for 10 minutes at 4° C. The supernatant is centrifuged at 100,000 g for 60 minutes at 4° C. The pellet is resuspended to 1 mg protein/mL TME buffer (50 mM Tris; 10 mM MgCl2; 0.1 mM EDTA; pH 6.0; 4° C.) based on protein levels measured using the Pierce BCA Protein Assay kit. […] The membrane preparations are then stored at −80° C., until thawed for assay use.
The receptor competition binding assays are developed in a 96 well format. Each well contains 100 g of hFP membrane, 5 nM (3 H) PGF2α, and the various competing compounds in a total volume of 200 L. The plates are incubated at 23° C. for 1 hour. […] The plates are read on a Packard TOPCOUNT® Microplate Scintillation Counter (also available from Packard Instrument Co., Inc.)

Chain of hFP receptor (P43088 whole entry): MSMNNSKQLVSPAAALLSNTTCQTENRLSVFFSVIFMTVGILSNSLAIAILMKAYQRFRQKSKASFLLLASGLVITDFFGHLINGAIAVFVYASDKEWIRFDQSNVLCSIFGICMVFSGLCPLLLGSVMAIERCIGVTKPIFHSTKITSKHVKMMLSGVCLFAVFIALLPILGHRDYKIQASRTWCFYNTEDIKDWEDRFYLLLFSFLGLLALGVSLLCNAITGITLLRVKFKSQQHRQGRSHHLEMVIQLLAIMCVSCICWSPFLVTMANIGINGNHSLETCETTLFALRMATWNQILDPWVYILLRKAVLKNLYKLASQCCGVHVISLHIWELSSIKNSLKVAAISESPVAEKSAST

- IC50: 114 nM
SMILES: CCCCCC(O)/C=C/[C@@H]1[C@@H](C/C=C\CCC[PH](=O)O)[C@@H](O)C[C@H]1O (stereo partly shown) [Example 1-2]
